The test system of experiment [1] is spontaneously hypertensive rats (SHR). Kind of experiment: Anti-inflammatory test after administration in spontaneously hypertensive rats (serum IL-8, TNF-α, hs-CRP). The class given is in vivo, rat. The protocol: Anti-inflammatory test after administration in spontaneously hypertensive rats is as follows.
(§1) Spontaneously hypertensive rats were purchased from Beijing Weitong Lihua Experimental Animal Technology Co., Ltd.
Forty male spontaneously hypertensive rats (SHR), aged about 12 weeks and weighing about 270 G, were adaptively fed for one week. […] The rats in the AC group were given captopril 10 mg/kg by gavage, at the same time, the MC group was given the same volume of distilled water. The drug was administered once a day for 4 weeks. Serum IL-8, TNF-α and hs-CRP were measured, and the data were analyzed by SPSS software.

Experiment [2] shares this test system. The experiment in a line: Protection of renal function in spontaneously hypertensive rats (SCr, SUA, BUN). To be noted: SHR serum, AC: captopril 10 mg/kg by gavage once a day for 4 weeks. In kind it is in vivo, rat. The procedure: as §1
Forty male spontaneously hypertensive rats (SHR), aged about 12 weeks and weighing about 270 G, were adaptively fed for one week. […] The rats in the AC group were given captopril 10 mg/kg by gavage, At the same time, the MC group was given the same volume of distilled water. The drug was administered once a day for 4 weeks. SCr, SUA and BUN were measured, and the data were analyzed by SPSS software.

[3] abbreviates: AC: captopril 10 mg/kg by gavage once a day for 4 weeks.

With `C[C@H](CS)C(=O)N1CCC[C@H]1C(=O)O` [captopril], in experiment [1] (setting [3]), the TNF-α is 87.41 ± 19.19 pg/mL and the hs-CRP is 1.53 ± 0.41 µg/L. In addition, the “serum IL-8 level” value in experiment [1] (positive drug group (captopril 10 mg/kg), 4 weeks) was 122 ± 12.15 pg/mL. Moreover, in experiment [2], the BUN is reported as 10.56 ± 3.17 mmol/L, the SCr is 421.50 ± 101.20 µmol/L and the SUA was found to be 211.60 ± 39.89 mg/L.

Values taken from patent publication US20220089662A1, “PREPRATION METHOD AND APPLICATION OF ANTI-INFLAMMATORY KIDNEY PROTECTING CLAM PEPTIDE” (Chenland Nutritionals Inc., priority 2020, published 2022).
